Patent publication US20070027143A1, “Novel substituted 2,3-benzodiazepine derivatives” (priority 2003, published 2007)
Where two headings read alike, the source gives them in different places. Marks after values point to notes of the source that are not given here.

Columns and labels:
Lewis rats [1] = assay: Autoimmune encephalomyelitis model, neurological (clinical) symptoms; type: in vivo; conditions: for Neurological symptoms (change, %): day 24 after immunization; for change in vivo at 1.875 mg/kg / change in vivo at 3.75 mg/kg / change in vivo at 7.5 mg/kg / change in vivo at 15 mg/kg / change in vivo at 0.2 mg/kg / change in vivo at 0.5 mg/kg / change in vivo at 1 mg/kg: Rattus norvegicus, read-out: Neurological symptoms (change compared to controls, %)
Method: The compounds were administered intraperitoneally twice a day for 8 days, starting on day 10 after immunization and with an observation period until symptoms were present. 5-15 animals were used in each group. Their weights were 160-180 g (Lewis rats, female) and 180-220 g (Lewis rats, male). The activity of the compounds was determined according to the symptom score values, and compared to those of the control group (see Table 6). Histopathological investigations were carried out on the brain stem, the spinal cord, and the sciatic nerve (Gijbels et al., J. Clin. Invest. 94:2177 (1994)) using 5-10 animal/group.
Compounds of the invention were further investigated in the autoimmune encephalomyelitis model in rats as outlined in this description before, with the variance that 10 animals were used in each group, of weights 140-160 g (Lewis rats, female).

CD1 mice [2] = assay: Anticonvulsant activity, bicuculline induced seizures; type: in vivo; conditions: Mus musculus; po.; read-out: Bicuculline ED50
Method in brief: (§1)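 Male CD1 mice (10 per dose) received test compounds orally at three dose levels, usually 60 min before chemical induction of clonic-tonic seizures and lethality.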

CD1 mice [3] = assay: Anticonvulsant activity, strychnine induced seizures; type: in vivo; conditions: Mus musculus; po.; read-out: Strychnine ED50
Method in brief: as §1

BN rats = assay: Airway eosinophilia of ovalbumin sensitized, antigen challenged BN rats (BALF eosinophil count); type: in vivo; conditions: 3.0 mg/kg po, 2 hours pre-challenge, mean ± SE
Description: Bronchial hyperresponsiveness (BHR) and airway eosinophilia (AEP) are characteristic features of bronchial asthma. BHR is typified by an exaggerated response to a wide variety of stimuli that can induce an increased resistance to airflow in the airways. AEP is a result of prolonged eosinophil infiltration, mast cell, and T cell activation in the airways. In actively (e.g., ovalbumin) immunized rats (e.g., Brown Norway [BN] strain), repeated sensitization followed by antigenic challenge results in lung eosinophilia and bronchial hyperresponsiveness to different spasmogens (e.g., acetylcholine). This is the most frequently employed model for studying potential anti-asthmatic effects of new chemical entities.
BN rats were actively immunized with allergen (ovalbumin). On day one, rats were sensitized with the subcutaneous administration of ovalbumin suspended in Al(OH)3 (2.5 μg ovalbumin +20 mg Al(OH)3 in 0.5 ml saline). Booster injections (same dose and same route) were given at day 14 and 21. Simultaneously at each occasion 0.25 ml of Bordatella pentussis vaccine was injected intraperitoneally. On day 28, animals were challenged by inhalation of the antigen (vaporized 1% OVA solution for 1 hour). Test compounds were administered orally 2 hours pre-challenge.
48 hours following challenge, they were sacrificed by an overdose of urethane (4-5 ml of 15% urethane given i.p.), bronchoalveolar lavage fluid (BALF) was obtained, and tracheae dissected from the animals. Eosinophil cell count (cells/ml BALF) was determined manually using a selective stain for eosinophils and counting the cells in a Buerker chamber. BHR was determined using tracheal rings suspended in an organ bath. After an equilibration period of 30 minutes, cumulative concentration response curves to acetylcholine were determined. Maximal response of control (unchallenged, non-treated) tracheal rings is obtained at 10^−3 M acetylcholine. The height of this response is defined as 100%. All other contractions are expressed as a percentage and related to the control response.

CD1 mice [4] = assay: Anticonvulsant activity, maximal electroshock seizure (MES) test; type: in vivo; conditions: Mus musculus, po.
CD1 mice [5] = assay: Anticonvulsant activity, 4-aminopyridine induced seizures; type: in vivo; conditions: Mus musculus; po.; read-out: 4-AP ED50
Method in brief: as §1

CD1 mice [6] = assay: Anti-tremor effect, harmaline induced tremor; type: in vivo; conditions: po., Litchfield-Wilcoxon, limits in brackets
Lewis rats [7] = assay: Autoimmune encephalomyelitis model, neurological (clinical) symptoms; type: in vivo; conditions: Rattus norvegicus, po, female rats, read-out: Neurological symptoms (change compared to controls, %); for change in vivo at 3.75 mg/kg: 3.75 mg/kg p.o.
[8] = ip, 1.875 mg/kg ip., female rats, 0-8 day
[9] = ip, 1.875 mg/kg ip., female rats, 0-14 day
[10] = ip, 3.75 mg/kg ip., female rats, 0-8 day
[11] = ip, 3.75 mg/kg ip., female rats, 0-14 day
[12] = 0.5 h, 30′, read-out: MES 30′ ED50
[13] = 1 h, 60 min before induction, read-out: MES (MES 60′) ED50

In the case of `Cc1nnc(N2N=C(c3ccc(N)cc3)c3cc4c(cc3C[C@H]2C)OCO4)s1` [Example 86, (R)-5-(4-Aminophenyl)-8-methyl-7-(5-methyl-1,3,4-thiadiazol-2-yl)-8,9-dihydro-7H-1,3-dioxolo-[4,5-h][2,3]benzodiazepine], the “Neurological symptoms (change, %)” value (Lewis rats [1]; 1.875 mg/kg ip., female rats) is reported as −42%, the “Neurological symptoms (change, %)” value (Lewis rats [1]; 1.875 mg/kg ip., male rats) is reported as “+54%” and the “Neurological symptoms (change, %)” value (Lewis rats [1]; 3.75 mg/kg ip., female rats) is reported as −21%. The “Neurological symptoms (change, %)” value (Lewis rats [1]; 3.75 mg/kg ip., male rats) was −72%, the “Neurological symptoms (change, %)” value (Lewis rats [1]; 7.5 mg/kg ip., female rats) was −62% and the “Neurological symptoms (change, %)” value (Lewis rats [1]; 7.5 mg/kg ip., male rats) was −66%. The “Neurological symptoms (change, %)” value (Lewis rats [1]; 15 mg/kg ip., female rats) was −85%, the “Neurological symptoms (change, %)” value (Lewis rats [1]; 15 mg/kg ip., male rats) was −67% and the change in vivo at 1.875 mg/kg (Lewis rats [1]; [8]) was -40%. The change in vivo at 1.875 mg/kg (Lewis rats [1]; [9]) was -39%, the change in vivo at 1.875 mg/kg (Lewis rats [1]; ip, 1.875 mg/kg ip., male rats, 0-8 day) was 5% and the change in vivo at 1.875 mg/kg (Lewis rats [1]; ip, 1.875 mg/kg ip., male rats, 0-14 day) was -8%. The change in vivo at 3.75 mg/kg (Lewis rats [1]; [10]) was -3%, the change in vivo at 3.75 mg/kg (Lewis rats [1]; [11]) was -18% and the change in vivo at 3.75 mg/kg (Lewis rats [1]; ip, 3.75 mg/kg ip., male rats, 0-8 day) was -70%. It also gave a change in vivo at 3.75 mg/kg (Lewis rats [1]; ip, 3.75 mg/kg ip., male rats, 0-14 day) of -77%, a change in vivo at 7.5 mg/kg (Lewis rats [1]; ip, 7.5 mg/kg ip., female rats, 0-8 day) of -62% and a change in vivo at 7.5 mg/kg (Lewis rats [1]; ip, 7.5 mg/kg ip., female rats, 0-14 day) of -66%. For the same compound, the change in vivo at 7.5 mg/kg (Lewis rats [1]; ip, 7.5 mg/kg ip., male rats, 0-8 day) was -65%, the change in vivo at 7.5 mg/kg (Lewis rats [1]; ip, 7.5 mg/kg ip., male rats, 0-14 day) was -70% and the change in vivo at 15 mg/kg (Lewis rats [1]; ip, 15 mg/kg ip., female rats, 0-8 day) was -97%. The change in vivo at 15 mg/kg (Lewis rats [1]; ip, 15 mg/kg ip., female rats, 0-14 day) was -85%, the change in vivo at 15 mg/kg (Lewis rats [1]; ip, 15 mg/kg ip., male rats, 0-8 day) was -93% and the change in vivo at 15 mg/kg (Lewis rats [1]; ip, 15 mg/kg ip., male rats, 0-14 day) was -67%. For the same compound, the “Activity compared to the reference compound (histopathological and pharmacological investigations)” value (Lewis rats [1]; result in words) was “more active than the reference compound GYKI 53773”, the ED50 (CD1 mice [2]) was 4.6 mg/kg and the ED50 (CD1 mice [3]) was 10.6 mg/kg. For the same compound, the BALF eosinophil number (BN rats) was 1.32 ± 0.32 ×10^6/ml, the ED50 (CD1 mice [4]; [12]) was 4.3 mg/kg and the ED50 (CD1 mice [4]; [13]) was 6.1 mg/kg. The ED50 (CD1 mice [5]) was 10.1 mg/kg and the “ED50, tremor induced by Harmaline 40 mg/kg ip.” value (CD1 mice [6]) was 6.0(4.9-7.4) mg/kg po.
In the case of `Cc1nnc(N2N=C(c3ccc(N)c(C)c3)c3cc4c(cc3C[C@H]2C)OCO4)s1` [Example 119, (R)-5-(4-amino-3-methylphenyl)-8-methyl-7-(5-methyl-1,3,4-thiadiazol-2-yl)-8,9-dihydro-7H-1,3-dioxolo-[4,5-h][2,3]benzodiazepine], the “Neurological symptoms (change, %)” value (Lewis rats [1]; 0.2 mg/kg i.p., female rats) is reported as −37%, the “Neurological symptoms (change, %)” value (Lewis rats [1]; 0.5 mg/kg i.p., female rats) is reported as −35% and the “Neurological symptoms (change, %)” value (Lewis rats [1]; 0.5 mg/kg p.o., female rats) is reported as −1%. The “Neurological symptoms (change, %)” value (Lewis rats [1]; 1.0 mg/kg i.p., female rats) was −72** %, the “Neurological symptoms (change, %)” value (Lewis rats [1]; 1.0 mg/kg p.o., female rats) was −23% and the “Neurological symptoms (change, %)” value (Lewis rats [1]; 1.875 mg/kg ip., female rats) was −71** %. The “Neurological symptoms (change, %)” value (Lewis rats [1]; 1.875 mg/kg p.o., female rats) was −50** %, the “Neurological symptoms (change, %)” value (Lewis rats [1]; 3.75 mg/kg ip., female rats) was −90** % and the “Neurological symptoms (change, %)” value (Lewis rats [1]; 3.75 mg/kg p.o., female rats) was −61*** %. It also gave a change in vivo at 0.2 mg/kg (Lewis rats [1]; ip, 0.2 mg/kg i.p., female rats, 0-8 day) of -36%, a change in vivo at 0.2 mg/kg (Lewis rats [1]; ip, 0.2 mg/kg i.p., female rats, 0-14 day) of -37% and a change in vivo at 0.5 mg/kg (Lewis rats [1]; ip, 0.5 mg/kg i.p., female rats, 0-8 day) of -33%. The change in vivo at 0.5 mg/kg (Lewis rats [1]; ip, 0.5 mg/kg i.p., female rats, 0-14 day) was -35%, the change in vivo at 1 mg/kg (Lewis rats [1]; ip, 1.0 mg/kg i.p., female rats, 0-8 day) was -75% and the change in vivo at 1 mg/kg (Lewis rats [1]; ip, 1.0 mg/kg i.p., female rats, 0-14 day) was -72%. It also gave a change in vivo at 1.875 mg/kg (Lewis rats [1]; [8]) of -72%, a change in vivo at 1.875 mg/kg (Lewis rats [1]; [9]) of -71% and a change in vivo at 3.75 mg/kg (Lewis rats [1]; [10]) of -97%. The change in vivo at 3.75 mg/kg (Lewis rats [1]; [11]) was -90%, the change in vivo at 0.5 mg/kg (Lewis rats [1]; po, 0.5 mg/kg p.o., female rats, 0-8 day) was 2% and the change in vivo at 0.5 mg/kg (Lewis rats [1]; po, 0.5 mg/kg p.o., female rats, 0-14 day) was -1%. For the same compound, the change in vivo at 1 mg/kg (Lewis rats [1]; po, 1.0 mg/kg p.o., female rats, 0-8 day) was -20%, the change in vivo at 1.875 mg/kg (Lewis rats [1]; po, 1.875 mg/kg p.o., female rats, 0-8 day) was -50% and the change in vivo at 1.875 mg/kg (Lewis rats [1]; po, 1.875 mg/kg p.o., female rats, 0-14 day) was -50%. The change in vivo at 1 mg/kg (Lewis rats [7]; 1.0 mg/kg p.o., 0-14 day) was -23%, the change in vivo at 3.75 mg/kg (Lewis rats [7]; 0-8 day) was -64% and the change in vivo at 3.75 mg/kg (Lewis rats [7]; 0-14 day) was -61%. The ED50 (CD1 mice [2]) was 2.5 mg/kg, the ED50 (CD1 mice [3]) was 8.4 mg/kg and the BALF eosinophil number (BN rats) was 1.16 ± 0.24 ×10^6/ml. The melting point was 158 to 160 °C, the ED50 (CD1 mice [4]; [12]) was 2.15 mg/kg and the ED50 (CD1 mice [4]; [13]) was 2.87 mg/kg. For the same compound, the ED50 (CD1 mice [5]) was 2.68 mg/kg.
